Assay results as given in patent US12485115B2, “Biased NMDA receptor modulators and uses thereof” (EDWARD VIA COLLEGE OF OSTEOPATHIC MEDICINE, priority 2018, dated 2025).
Read-outs that look alike come from different tables or passages of the source. Values belong to the compound of their own block, whether it stands above or below them.

Legend:
Type in all cases: cell-based
GluN1/2B = GluN1/2B (Homo sapiens, UniProt Q05586+Q13224); assay: NMDA receptor subunit selectivity of CNS004 analogs, average response, 1/2B; details: compound 100 μM
GluN1/2A = GluN1/2A (Homo sapiens, UniProt Q05586+Q12879); assay: NMDA receptor subunit selectivity of CNS004 analogs, average response, 1/2A; details: compound 100 μM
GluN1/2A/2B (TH) = GluN1/2A/2B (TH) (Homo sapiens, UniProt Q05586+Q12879+Q13224); assay: NMDA receptor subunit selectivity of CNS004 analogs, average response, TH; details: compound 100 μM
[1] = target: GluN1/2A/2B triheteromeric NMDA receptor (Homo sapiens, UniProt Q05586+Q12879+Q13224); assay: Two-electrode voltage clamp (TEVC), Xenopus oocytes expressing recombinant GluN1/2A/2B
Protocol: (§1) Briefly, appropriate combinations of cRNA encoding different NMDA receptor subunits were injected into Xenopus oocytes and incubated at about 18° C. for about 2-4 days before TEVC assays. TEVC assays were performed with a −60 mV holding potential.

[2] = target: T1, GluN1/2A/2B NMDA receptor (Homo sapiens, UniProt Q05586+Q12879+Q13224); assay: Patch clamp electrophysiology, HEK293T cells expressing recombinant GluN1/2A/2B
T1 construct: expressed in transfected cells; host or cells: HEK293T
Protocol: (§2) Patch clamp electrophysiology was also performed. Briefly, HEK293T cells were transfected with cDNA encoding NMDA receptor subunits 18-24 hours prior to patch clamp procedures. The effect of CNS004 on the agonist induced NMDA receptor function was evaluated at −80 mV.

GluN1/2C NMDA receptor = GluN1/2C NMDA receptor (Homo sapiens, UniProt Q05586+Q14957); assay: Two-electrode voltage clamp (TEVC), Xenopus oocytes expressing recombinant GluN1/2C; details: 10 μM glycine and 10 μM glutamate; EC50 ND, n=6
Protocol: as §1, with “Two-electrode voltage clamp)TEVC) and patch clamp electrophysiology techniques were used to study CNS004 induced changes in NMDA receptor functions. Briefly,” for “Briefly,”, “potential. […]” for “potential.”

GluN1/2A NMDA receptor [3] = target: T2, GluN1/2A NMDA receptor (Homo sapiens, UniProt Q05586+Q12879); assay: Two-electrode voltage clamp (TEVC), Xenopus oocytes expressing recombinant GluN1/2A
Protocol: as §1, with “Two-electrode voltage clamp)TEVC) and patch clamp electrophysiology techniques were used to study CNS004 induced changes in NMDA receptor functions. Briefly,” for “Briefly,”, “potential. […]” for “potential.”

GluN1/2A NMDA receptor [4] = target: T2, GluN1/2A NMDA receptor; assay: Patch clamp electrophysiology, HEK293T cells expressing recombinant GluN1/2A; details: 100 μM CNS004
Protocol: as §2

GluN1/2B NMDA receptor = GluN1/2B NMDA receptor (Homo sapiens, UniProt Q05586+Q13224); assay: Two-electrode voltage clamp (TEVC), Xenopus oocytes expressing recombinant GluN1/2B
Protocol: as §1, with “Two-electrode voltage clamp)TEVC) and patch clamp electrophysiology techniques were used to study CNS004 induced changes in NMDA receptor functions. Briefly,” for “Briefly,”, “potential. […]” for “potential.”

GluN1/2D NMDA receptor = GluN1/2D NMDA receptor (Homo sapiens, UniProt O15399+Q05586); assay: Two-electrode voltage clamp (TEVC), Xenopus oocytes expressing recombinant GluN1/2D; details: 10 μM glycine and 10 μM glutamate; EC50 ND, n=5
Protocol: as §1, with “Two-electrode voltage clamp)TEVC) and patch clamp electrophysiology techniques were used to study CNS004 induced changes in NMDA receptor functions. Briefly,” for “Briefly,”, “potential. […]” for “potential.”

GluN1/2B NMDA receptor, sequence (Q13224 27-1484, other chains not shown): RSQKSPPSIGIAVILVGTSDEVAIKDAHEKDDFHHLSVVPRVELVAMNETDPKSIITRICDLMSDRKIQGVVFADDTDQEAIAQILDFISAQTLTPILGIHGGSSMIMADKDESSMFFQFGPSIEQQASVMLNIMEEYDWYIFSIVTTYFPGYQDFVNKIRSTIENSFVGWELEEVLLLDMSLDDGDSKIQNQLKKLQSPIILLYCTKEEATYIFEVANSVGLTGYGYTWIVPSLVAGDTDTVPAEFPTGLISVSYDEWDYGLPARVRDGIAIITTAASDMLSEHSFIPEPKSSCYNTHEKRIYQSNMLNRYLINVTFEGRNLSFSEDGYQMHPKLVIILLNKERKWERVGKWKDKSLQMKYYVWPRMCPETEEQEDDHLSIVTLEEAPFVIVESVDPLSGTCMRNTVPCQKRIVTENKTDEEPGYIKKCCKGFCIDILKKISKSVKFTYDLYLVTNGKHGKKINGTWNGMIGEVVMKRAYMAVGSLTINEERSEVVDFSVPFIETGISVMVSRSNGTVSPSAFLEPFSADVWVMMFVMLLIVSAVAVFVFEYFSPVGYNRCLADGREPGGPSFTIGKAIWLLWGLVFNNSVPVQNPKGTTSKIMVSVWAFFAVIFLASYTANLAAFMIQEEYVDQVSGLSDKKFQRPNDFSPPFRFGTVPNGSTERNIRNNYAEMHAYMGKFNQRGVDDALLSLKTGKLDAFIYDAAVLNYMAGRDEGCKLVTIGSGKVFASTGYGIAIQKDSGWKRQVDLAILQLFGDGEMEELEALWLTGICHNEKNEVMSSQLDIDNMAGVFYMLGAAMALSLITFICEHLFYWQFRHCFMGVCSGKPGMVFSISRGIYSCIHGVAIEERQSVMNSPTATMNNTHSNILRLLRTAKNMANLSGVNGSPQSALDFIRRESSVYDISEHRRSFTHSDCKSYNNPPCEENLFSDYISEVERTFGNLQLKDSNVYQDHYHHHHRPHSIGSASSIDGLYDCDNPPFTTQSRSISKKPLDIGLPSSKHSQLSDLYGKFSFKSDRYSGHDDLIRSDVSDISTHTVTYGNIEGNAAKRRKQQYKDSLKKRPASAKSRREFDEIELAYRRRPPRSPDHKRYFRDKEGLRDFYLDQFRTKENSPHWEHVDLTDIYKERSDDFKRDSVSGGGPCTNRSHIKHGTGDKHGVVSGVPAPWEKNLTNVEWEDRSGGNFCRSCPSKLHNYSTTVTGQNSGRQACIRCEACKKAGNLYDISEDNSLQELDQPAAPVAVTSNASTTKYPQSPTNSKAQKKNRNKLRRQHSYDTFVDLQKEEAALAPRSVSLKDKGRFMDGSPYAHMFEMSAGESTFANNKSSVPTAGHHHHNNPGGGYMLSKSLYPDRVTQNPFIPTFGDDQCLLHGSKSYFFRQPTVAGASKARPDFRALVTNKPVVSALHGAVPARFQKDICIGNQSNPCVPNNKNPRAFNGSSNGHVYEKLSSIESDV
GluN1/2B, sequence (Q13224 27-1484, other chains not shown): as above
GluN1/2A, sequence (Q12879 23-1464, other chains not shown): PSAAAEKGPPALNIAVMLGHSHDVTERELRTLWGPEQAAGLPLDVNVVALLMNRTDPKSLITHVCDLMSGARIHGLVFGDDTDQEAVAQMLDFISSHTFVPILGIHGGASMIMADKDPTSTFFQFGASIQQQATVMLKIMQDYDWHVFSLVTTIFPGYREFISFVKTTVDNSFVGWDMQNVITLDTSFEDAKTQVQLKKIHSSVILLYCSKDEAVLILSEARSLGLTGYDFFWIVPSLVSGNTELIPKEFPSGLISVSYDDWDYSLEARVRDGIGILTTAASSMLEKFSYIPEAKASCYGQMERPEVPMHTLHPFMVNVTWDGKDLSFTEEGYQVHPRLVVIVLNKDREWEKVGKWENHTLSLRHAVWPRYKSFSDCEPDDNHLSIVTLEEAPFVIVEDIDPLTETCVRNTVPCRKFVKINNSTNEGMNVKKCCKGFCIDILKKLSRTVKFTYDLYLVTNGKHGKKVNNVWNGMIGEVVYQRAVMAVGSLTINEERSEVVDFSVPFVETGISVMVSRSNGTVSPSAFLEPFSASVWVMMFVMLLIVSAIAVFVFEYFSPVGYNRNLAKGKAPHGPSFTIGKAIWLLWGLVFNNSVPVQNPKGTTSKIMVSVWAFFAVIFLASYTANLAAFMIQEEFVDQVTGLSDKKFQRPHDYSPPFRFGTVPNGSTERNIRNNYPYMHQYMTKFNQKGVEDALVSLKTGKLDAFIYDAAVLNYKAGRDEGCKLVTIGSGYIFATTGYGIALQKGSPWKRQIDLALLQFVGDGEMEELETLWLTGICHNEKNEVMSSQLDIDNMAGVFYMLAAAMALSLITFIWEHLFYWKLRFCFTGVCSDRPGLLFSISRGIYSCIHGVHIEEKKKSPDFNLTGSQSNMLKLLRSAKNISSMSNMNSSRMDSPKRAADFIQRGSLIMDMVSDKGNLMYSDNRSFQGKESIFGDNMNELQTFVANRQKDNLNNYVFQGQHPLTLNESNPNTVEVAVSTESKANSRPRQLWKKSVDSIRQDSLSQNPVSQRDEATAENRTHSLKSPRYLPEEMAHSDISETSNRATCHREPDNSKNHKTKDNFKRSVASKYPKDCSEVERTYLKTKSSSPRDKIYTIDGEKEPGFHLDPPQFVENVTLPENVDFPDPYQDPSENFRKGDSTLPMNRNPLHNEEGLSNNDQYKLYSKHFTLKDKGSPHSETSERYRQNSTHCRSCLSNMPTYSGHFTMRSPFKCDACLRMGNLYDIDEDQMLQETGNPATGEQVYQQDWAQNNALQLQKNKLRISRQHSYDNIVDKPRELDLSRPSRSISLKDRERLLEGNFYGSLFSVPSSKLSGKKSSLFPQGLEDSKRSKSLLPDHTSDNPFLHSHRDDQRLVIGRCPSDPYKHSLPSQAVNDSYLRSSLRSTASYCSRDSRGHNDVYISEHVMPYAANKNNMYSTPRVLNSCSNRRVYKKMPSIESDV

Structure (SMILES): Fc1ccc(C(=S)NC(=S)N2CCCCC2c2cccnc2)cc1 (stereo not drawn) [Compound 3]
Average Response (% inhibition), 1/2B (GluN1/2B): −45.1553 % inhibition
Average Response (% inhibition), 1/2A (GluN1/2A): −52.246 % inhibition
Average Response (% inhibition), TH (GluN1/2A/2B (TH)): −13.1155 % inhibition

Structure (SMILES): O=C(NC(=S)N1CCCCC1c1cccnc1)c1ccc(C2CC2)cc1 (stereo not drawn) [Compound 5]
Average Response (% inhibition), 1/2B (GluN1/2B): 9.468 % inhibition
Average Response (% inhibition), 1/2A (GluN1/2A): 7.117 % inhibition
Average Response (% inhibition), TH (GluN1/2A/2B (TH)): −2.571 % inhibition

Structure (SMILES): O=C(NC(=S)N1CCCCC1c1cccnc1)c1ccc(CCCF)cc1 (stereo not drawn) [Compound 6]
Average Response (% inhibition), 1/2B (GluN1/2B): 6.739 % inhibition
Average Response (% inhibition), 1/2A (GluN1/2A): −21.076 % inhibition
Average Response (% inhibition), TH (GluN1/2A/2B (TH)): 7.444 % inhibition

Structure (SMILES): O=C(NC(=S)N1CCCCC1c1cccnc1)c1ccc(F)cc1 (stereo not drawn) [CNS004, 4-Fluoro-N-(2-(pyridin-3-yl)piperidine-1-carbonothioyl)benzamide]
effect of co-application with agonist on steady-state currents, GluN1/2A/2B ([2]; 100 μM CNS004, 30 μM glycine and 100 μM glutamate): potentiates steady-state currents
effect on 1/2A/2B currents at reduced glutamate ([2]; 100 μM CNS004, 100 μM glycine and 300 nM glutamate): inhibits
effect of CNS004 pre-application on steady-state currents, GluN1/2A/2B ([2]; 100 μM CNS004 pre-application, 30 μM glycine and 100 μM glutamate): steep reduction in steady-state currents
effect of CNS004 pre-application on desensitization, GluN1/2A/2B ([2]; 100 μM CNS004 pre-application, 30 μM glycine and 100 μM glutamate, GluN1/2A/2B only): promotes desensitization
effect on GluN1/2C (DRC) (GluN1/2C NMDA receptor): no activity
EC50 ([1]; 10 μM glycine and 10 μM glutamate, n=6, read-out: EC50 of potentiation of GluN1/2A/2B (averaged and normalized DRC)): 39 ± 22.4 µM
change of glycine potency on GluN1/2A/2B ([1]; 30 uM CNS4, glutamate 100 uM): increase in glycine potency
change of glutamate potency on TH (GluN1/2A/2B) ([1]; 30 uM CNS4, glycine 100 uM): increase in glutamate potency
effect on glycine and/or glutamate potency in GluN1/2A/2B (FIGS. 15A-15H) ([1]; 30 μM and 100 μM CNS004): increases Glycine and/or Glutamate Potency
effect on agonist induced current in GluN1/2A/2B in three sequences of application ([1]; 100 μM CNS004, 100 μM glycine+100 μM glutamate, co-application, agonist pre-application, CNS004 pre-application): potentiation
EC50 ([1]; 100 μM glycine and 100 μM glutamate, n=5, read-out: EC50 of potentiation of GluN1/2A/2B (averaged dose response curve)): 160 ± 15.4 µM
effect of pre-application of CNS004 alone on agonist induced current response ([1]; recombinant GluN1/2A, GluN1/2B and GluN1/2A/2B traces (FIG. 1E)): did not change the agonist induced current response
receptor activation in the absence of agonist glutamate or glycine ([1]; recombinant GluN1/2A, GluN1/2B and GluN1/2A/2B traces (FIG. 1E), no agonist): did not activate the receptor
effect on GluN1/2A (DRC) (GluN1/2A NMDA receptor [3]; 10 μM glycine and 10 μM glutamate, EC50 ND, n=6): minimally inhibited
change of glycine potency on GluN1/2A (GluN1/2A NMDA receptor [3]; 30 uM CNS4, glutamate 100 uM): increase in glycine potency
change of glutamate potency on GluN1/2A (GluN1/2A NMDA receptor [3]; 30 uM CNS4, glycine 100 uM): increase in glutamate potency
activity on GluN1/2A (averaged dose response curve) (GluN1/2A NMDA receptor [3]; 100 μM glycine and 100 μM glutamate, EC50 not determined, n=3): minimal activity
effect of co-application with agonist on steady-state currents, GluN1/2A (GluN1/2A NMDA receptor [4]; 30 μM glycine and 100 μM glutamate): potentiates steady-state currents
effect on 1/2A receptor currents at reduced glutamate (GluN1/2A NMDA receptor [4]; 100 μM glycine and 300 nM glutamate): largely potentiated
change of glycine potency on GluN1/2B (GluN1/2B NMDA receptor; 30 uM CNS4, glutamate 100 uM): increase in glycine potency
activity on GluN1/2B (averaged dose response curve) (GluN1/2B NMDA receptor; 100 μM glycine and 100 μM glutamate, EC50 not determined, n=4): minimal activity
EC50 (GluN1/2B NMDA receptor; read-out: EC50 of potentiation of GluN1/2B (averaged and normalized DRC)): 8.67 ± 2.77 µM
effect on GluN1/2D (DRC) (GluN1/2D NMDA receptor): minimally inhibited

Structure (SMILES): O=C(NC(=O)N1CCCCC1c1cccnc1)c1ccc(F)cc1 (stereo not drawn) [Compound 4]
Average Response (% inhibition), 1/2B (GluN1/2B): 5.755 % inhibition
Average Response (% inhibition), 1/2A (GluN1/2A): 20.43 % inhibition
Average Response (% inhibition), TH (GluN1/2A/2B (TH)): 4.722 % inhibition

Structure (SMILES): O=C(NC(=S)N1CCCCC1c1cccnc1)c1ccc(C(F)(F)F)cc1 (stereo not drawn) [Compound 2]
Average Response (% inhibition), 1/2B (GluN1/2B): −14.5863 % inhibition
Average Response (% inhibition), 1/2A (GluN1/2A): −76.1696 % inhibition
Average Response (% inhibition), TH (GluN1/2A/2B (TH)): −3.954 % inhibition

Results, then the compound that gave them:

selectivity for GluN1/2A/2B receptor (FIG. 9G) ([1]; GluN1/2B selective antagonist): intermediate selectivity
Structure (SMILES): CC(C(O)c1ccc(O)cc1)N1CCC(Cc2ccccc2)CC1 (stereo not drawn) [ifenprodil, reference compound]

Average Response (% inhibition), 1/2B (GluN1/2B): −56.1908 % inhibition
Average Response (% inhibition), 1/2A (GluN1/2A): −3.81 % inhibition
Average Response (% inhibition), TH (GluN1/2A/2B (TH)): −3.494 % inhibition
Structure (SMILES): O=C(NC(=S)N1CCCCC1c1cccnc1)c1cccc(F)n1 (stereo not drawn) [Compound 40]

Average Response (% inhibition), 1/2B (GluN1/2B): 0.6785 % inhibition
Average Response (% inhibition), 1/2A (GluN1/2A): 15.8054 % inhibition
Average Response (% inhibition), TH (GluN1/2A/2B (TH)): 27.54 % inhibition
Structure (SMILES): COc1cccc(C(=O)NC(=S)N2CCCCC2c2cccnc2)c1OC (stereo not drawn) [Compound 41]

Average Response (% inhibition), 1/2B (GluN1/2B): −19.0618 % inhibition
Average Response (% inhibition), 1/2A (GluN1/2A): −31.9381 % inhibition
Average Response (% inhibition), TH (GluN1/2A/2B (TH)): −11.9509 % inhibition
Structure (SMILES): O=C(NC(=S)N1CCCCC1c1cccnc1)c1ccc(Cl)c(F)c1 (stereo not drawn) [Compound 9]

Average Response (% inhibition), 1/2B (GluN1/2B): 6.998 % inhibition
Average Response (% inhibition), 1/2A (GluN1/2A): 0.4959 % inhibition
Average Response (% inhibition), TH (GluN1/2A/2B (TH)): 8.377 % inhibition
Structure (SMILES): COCCCc1ccc(C(=O)NC(=S)N2CCCCC2c2cccnc2)cc1 (stereo not drawn) [Compound 8]

Average Response (% inhibition), 1/2B (GluN1/2B): 3.872 % inhibition
Average Response (% inhibition), 1/2A (GluN1/2A): −1.858 % inhibition
Average Response (% inhibition), TH (GluN1/2A/2B (TH)): 16.4617 % inhibition
Structure (SMILES): O=C(NC(=S)N1CCCCC1c1cccnc1)c1ccc(P(=O)(O)O)cc1 (stereo not drawn) [Compound 7]
